Laboratory results published in US20070243244A1 (priority 2005, published 2007).
Like-named read-outs stand apart in the source and are kept apart here.

Key:
[1] = oral bioavailability of encapsulated microparticulate (100 mg) enteric coated formulation (Example 3); design: species or system cynomolgus monkeys; conditions: cynomolgus monkey, in vivo
Protocol: Each 100 mg capsule contained 478.5 mg enteric coated granules. […] The monkeys were housed in Bioresources vivarium with free access to water and food. The four monkeys received the oral formulation described above (1×100 mg multi-particulate capsule). The formulation was administered with 10 mL water. All monkeys were fasted overnight prior to dosing (with free access to water) and were fed 4 hours after dose administration. […] Approximately 3 mL of blood were drawn into Vacutainer® tubes containing sodium heparin as the anticoagulant. Plasma was separated in a refrigerated centrifuge and stored at -70° C. Plasma samples were delivered to the assay site packed on dry ice.

[2] = cell monolayer permeability studies; type: in vitro ADME; conditions: 1 mM in ethanol and buffer, pH 6 to 6.4
solubility in water = type: physicochemical; conditions: over the entire pH range of 1 to 14
[3] = pharmacokinetics after single oral (gavage) and intravenous dose in 0.9% saline (Example 2); design: species or system cynomolgus monkeys; conditions: male, cynomolgus monkey, in vivo; for Vd: Vdss
Protocol: Four male cynomolgus monkeys were used in the study. […] The dosing volume was 10 mL/kg.
By using 0.2 mL of monkey plasma sample, the assay limit of quantitation (LOQ) was 100 ng/mL and the curve range was between 100 and 6400 ng/mL.
AUC0-4 was calculated by AUC0-t+Ct/λ, where AUC0-t was the AUC from time 0 to t, the last quantifiable time point and Ct was the last quantifiable concentration. […] Systemic clearance (CLT) after the iv dose was calculated using the formula of Dose/AUC0-4.

[4] = systemic clearance in dogs; conditions: dog, in vivo, after a single 5 mg/kg dose, read-out: systemic clearance (ClT) in dogs (converted)
[5] = iv, 5 mg/kg, Plasma Concentrations
[6] = po, 15 mg/kg, Plasma Concentrations
[7] = po, 15 mg/kg, Plasma Concentrations, Mean
[8] = cynomolgus, iv, 5 mg/kg, Plasma Concentrations
[9] = cynomolgus, iv, 5 mg/kg, Plasma Concentrations, Mean

For `CN(C)c1cc(NC(=O)CNC(C)(C)C)c(O)c2c1C[C@H]1C[C@H]3[C@H](N(C)C)C(O)=C(C(N)=O)C(=O)[C@@]3(O)C(O)=C1C2=O` [Tigecycline], the concentration at 1 hr ([1]; fasted male cynomolgus monkeys, single oral dose 100 mg encapsulated microparticulate capsule, 1 hr, individual animals, read-out: Plasma Concentrations) was 113 ng/mL, the concentration at 3 hr ([1]; fasted male cynomolgus monkeys, single oral dose 100 mg encapsulated microparticulate capsule, 3 hr, individual animals, read-out: Plasma Concentrations) was 174 ng/mL and the concentration at 4 hr ([1]; fasted male cynomolgus monkeys, single oral dose 100 mg encapsulated microparticulate capsule, 4 hr, individual animals, read-out: Plasma Concentrations) was 113 ng/mL. The “AUC/Dose, Mean” value ([1]; male) was 174, the “Cmax/Dose, Mean” value ([1]; male) was 14.0 and the AUC/Dose ([1]; male, po, 16 mg/kg) was 174. For the same compound, the Cmax/Dose ([1]; male, po, 16 mg/kg) was 14.0, the AUC ([1]; male, po, 16 mg/kg, AUC0/t or 0-∞) was 2830 ng·h/mL and the bioavailability ([1]; male, po, 16 mg/kg, Bioavailability) was 4.8%. The Cmax ([1]; male, po, 16 mg/kg) was 225 ng/mL, the bioavailability ([1]; male, po, 16 mg/kg, absolute bioavailability of tigecycline in the blood) was 5% and the half-life ([1]; male, po, 16 mg/kg, t1/2) was 12.1 h. For the same compound, the Tmax ([1]; male, po, 16 mg/kg, tmax) was 2.25 h, the Tmax ([1]; male, po, 100 mg) was 3.0 h and the AUC(0-inf) ([1]; male, po, 100 mg, AUC0-∞, Mean) was 2830 ng·h/mL. It also gave an AUC ([1]; male, po, 100 mg, AUC0/24, Mean) of 2130 ng·h/mL, a Cmax ([1]; male, po, 100 mg, Mean) of 225 ng/mL and a half-life ([1]; male, po, 100 mg, T1/2) of 9.48 h. For the same compound, the half-life ([1]; male, po, 100 mg, T1/2, Mean) was 12.1 h, the Tmax ([1]; male, po, 100 mg, Tmax) was 2 h and the Tmax ([1]; male, po, 100 mg, Tmax, Mean) was 2.25 h. For the same compound, the Papp at 1 mM [2] was 0.04 ×10⁻⁶ cm/s, the solubility (solubility in water) was over 295 mg/mL and the AUC ([3]; 15 mg/kg) was 18300 ng·h/mL. The Cmax ([3]; 15 mg/kg, Cmax) was 15100 ng/mL, the half-life ([3]; 15 mg/kg, t1/2) was 14.1 h and the AUC(0-t) ([3]; iv, 5 mg/kg) was 18200 ng·h/mL. For the same compound, the “ClT, Mean” value ([3]; iv, 5 mg/kg) was 4.67 mL/min/kg, the “MRTiv, Mean” value ([3]; iv, 5 mg/kg) was 12.8 h and the “Plasma Concentrations” value ([3]; iv, 5 mg/kg, 0 hr) was under 100 ng/mL. For the same compound, the concentration at 0 hr [3, 5] was under 100 ng/mL, the concentration at 0.5 hr [3, 5] was 3340 ng/mL and the concentration at 1 hr [3, 5] was 1660 ng/mL. The concentration at 12 hr [3, 5] was 265 ng/mL, the concentration at 24 hr [3, 5] was 155 ng/mL and the concentration at 32 hr [3, 5] was under 100 ng/mL. It also gave a concentration at 48 hr [3, 5] of under 100 ng/mL, a Vd ([3]; iv, 5 mg/kg, Mean) of 3.47 L/kg and a half-life ([3]; iv, 5 mg/kg, t1/2) of 11.4 to 19.1 h. For the same compound, the half-life ([3]; iv, 5 mg/kg, t1/2, Mean) was 14.1 h, the AUC ([3]; po, 15 mg/kg) was 163 ng·h/mL and the “detected in samples up to (time post-dose)” value ([3]; po, 15 mg/kg) was “up to 2 hours”. For the same compound, the “Plasma Concentrations” value ([3]; po, 15 mg/kg, 0 h) was under 100 ng/mL, the “Plasma Concentrations” value ([3]; po, 15 mg/kg, 4 hr) was under 100 ng/mL and the “Plasma Concentrations” value ([3]; po, 15 mg/kg, 6 hr) was under 100 ng/mL. The “Plasma Concentrations” value ([3]; po, 15 mg/kg, 8 hr) was under 100 ng/mL, the “Plasma Concentrations” value ([3]; po, 15 mg/kg, 12 hr) was under 100 ng/mL and the “Plasma Concentrations” value ([3]; po, 15 mg/kg, 24 h) was under 100 ng/mL. The “Plasma Concentrations” value ([3]; po, 15 mg/kg, 32 h) was under 100 ng/mL, the “Plasma Concentrations” value ([3]; po, 15 mg/kg, 48 h) was under 100 ng/mL and the AUC(0-t) ([3]; po, 15 mg/kg, AUC0-t, Mean) was 163 ng·h/mL. The Cmax ([3]; po, 15 mg/kg, Cmax) was 163 ng/mL, the concentration at 0 h [3, 6] was under 100 ng/mL and the concentration at 0.5 h [3, 6] was under 100 ng/mL. The concentration at 1 hr [3, 6] was 114 ng/mL, the concentration at 2 hr [3, 6] was 131 ng/mL and the concentration at 4 hr [3, 6] was under 100 ng/mL. For the same compound, the concentration at 6 hr [3, 6] was under 100 ng/mL, the concentration at 8 hr [3, 6] was under 100 ng/mL and the concentration at 12 hr [3, 6] was under 100 ng/mL. The concentration at 24 h [3, 6] was under 100 ng/mL, the concentration at 32 h [3, 6] was under 100 ng/mL and the concentration at 48 h [3, 6] was under 100 ng/mL. The concentration at 0 h [3, 7] was 0 ng/mL, the concentration at 0.5 h [3, 7] was 55.5 ng/mL and the concentration at 1 h [3, 7] was 131 ng/mL. For the same compound, the concentration at 2 h [3, 7] was 118 ng/mL, the concentration at 4 h [3, 7] was 0 ng/mL and the concentration at 6 h [3, 7] was 0 ng/mL. For the same compound, the concentration at 8 h [3, 7] was 0 ng/mL, the concentration at 12 h [3, 7] was 0 ng/mL and the concentration at 24 h [3, 7] was 0 ng/mL. The concentration at 32 h [3, 7] was 0 ng/mL, the concentration at 48 h [3, 7] was 0 ng/mL and the Tmax ([3]; po, 15 mg/kg, tmax) was 1.8 h. It also gave a Tmax ([3]; po, 15 mg/kg, tmax, Mean) of 1.8 h, a concentration at 2 hr ([3]; monkeys, single oral (gavage) dose of 15 mg/kg, 2 hr, individual animals, read-out: Plasma Concentrations) of 191 ng/mL and a Cmax ([3]; cynomolgus, iv, 5 mg/kg, Cmax, Mean) of 15100 ng/mL. It also gave an AUC(0-t) ([3]; cynomolgus, iv, 5 mg/kg, Mean) of 18300 ± 3030 ng·h/mL, a concentration at 2 hr [3, 8] of 1010 ng/mL and a concentration at 4 hr [3, 8] of 588 ng/mL. It also gave a concentration at 6 hr [3, 8] of 431 ng/mL, a concentration at 8 hr [3, 8] of 372 ng/mL and a concentration at 0 hr [3, 9] of 0 ng/mL. For the same compound, the concentration at 0.083 hr [3, 9] was 15100 ng/mL, the concentration at 0.5 hr [3, 9] was 2250 ng/mL and the concentration at 1 hr [3, 9] was 1400 ng/mL. For the same compound, the concentration at 2 hr [3, 9] was 1090 ng/mL, the concentration at 4 hr [3, 9] was 697 ng/mL and the concentration at 6 hr [3, 9] was 499 ng/mL. For the same compound, the concentration at 8 hr [3, 9] was 392 ng/mL, the concentration at 12 hr [3, 9] was 264 ng/mL and the concentration at 24 hr [3, 9] was 162 ng/mL. For the same compound, the concentration at 32 hr [3, 9] was 31.8 ng/mL, the concentration at 48 hr [3, 9] was 27 ng/mL and the Vd ([3]; cynomolgus, iv, 5 mg/kg, Mean) was 3.47 ± 1.09 L/kg. For the same compound, the half-life ([3]; cynomolgus, iv, 5 mg/kg, t1/2) was 12.8 h, the half-life ([3]; cynomolgus, iv, 5 mg/kg, t1/2, Mean) was 14.1 ± 3.4 h and the Tmax ([3]; cynomolgus, po, 15 mg/kg) was 1.0 h. The Cmax ([3]; cynomolgus, po, 15 mg/kg, Cmax) was 178 ng/mL, the Cmax ([3]; cynomolgus, po, 15 mg/kg, Cmax, Mean) was 163 ± 27.1 ng/mL and the Tmax ([3]; cynomolgus, po, 15 mg/kg, tmax) was 1 to 2 h. For the same compound, the Cmax ([3]; cynomolgus, monkeys, single oral (gavage) dose of 15 mg/kg, individual animals, read-out: Cmax) was 191 ng/mL and the clearance [4] was about 4.33 mL/min/kg.
